Columns and labels:
SCNT embryos = assay: Preimplantation development of SCNT embryos cultured in vitro; type: cell-based, mouse; details: for No. of blastocyst / blastocyst (% per 1-cell): ntESC derivation experiment
Excerpt: C57BL/6J female mice were mated with DBA/2J males to produce B6D2F1/J (BDF1) mice. BDF1 and CD-1 (ICR) adult females were used for the collection of recipient oocytes and embryo transfer recipients, respectively. BDF1 mice were used for the collection of donor somatic cells for the analyses of development. (C57BL/6×CAST/EiJ) F1 mice were used for the collection of donor cells for RNA-seq. E13.5 embryos harboring GOF18 delta-PE (Jackson Laboratory, 004654: Tg(Pou5f1-EGFP)2Mnn, C57BL/6J background) were used for the isolation of mouse embryonic fibroblasts (MEF). All animal experiments were approved by the Institutional Animal Care and Use Committee of Harvard Medical School.
Cumulus cells were collected from adult BDF1 females through superovulation by injecting 7.5 IU of pregnant mare serum gonadotropin (PMSG; Harbor) and 7.5 IU of human chorionic gonadotropin (hCG; Millipore). Fifteen hours after the hCG injection, cumulus-oocyte complexes (COCs) were collected from the oviducts and briefly treated with Hepes-buffered potassium simplex-optimized medium (KSOM) containing 300 U/ml bovine testicular hyaluronidase (Calbiochem #385931) to obtain dissociated cumulus cells. Sertoli cells were collected from testes of 3- to 5-day-old BDF1 male mice as described (Matoba et al., 2011). Testicular masses were incubated in PBS containing 0.1 mg/ml collagenase (Life Technologies #17104-019) for 30 min at 37° C. followed by 5 min treatment with 0.25% Trypsine with 1 mM EDTA (Life Technologies #25200-056) at room temperature. After washing for four times with PBS containing 3 mg/ml bovine serum albumin, the dissociated cells were suspended in Hepes-KSOM medium.
Primary mouse embryonic fibroblast (MEF) cells were established from GOF18 delta-PE mouse embryos at 13.5 dpc. After removal of head and all organs, minced tissue from remaining corpus was dissociated in 500 μl of 0.25% Trypsine with 1 mM EDTA for 10 min at 37° C. Cell suspension was diluted with equal amount of DMEM (Life Technologies #11995-073) containing 10% FBS and Penicillin/Streptomycin (Life Technologies #15140-022) and pipetted up and down for 20 times. The cell suspension was diluted with fresh medium and plated onto 100 mm dishes and cultured at 37° C. Two days later, MEF cells were harvested and frozen. Frozen stocks of MEF cells were thawed and used for experiments after one passage.
siRNAs against mouse Suv39h1 (Life Technologies #s74607), Suv39h2 (Life Technologies #s82300) and Setdb1 (Life Technologies #s96549) were diluted in nuclease free water at 50 μM stock solutions. siRNAs were introduced to MEFs with Lipofectamine RNAi Max (Life technologies #35050-061) following manufacturer's protocol. Briefly, 1×10^5 MEF cells were seeded onto 24-well plate (day 0; see FIG. 5A). Twenty-four hours later, […] siRNAs were transfected into MEF cells using Lipofectamine RNAi Max (day 1). Twenty-four hours after the first transfection, the culture media was changed to fresh M293T media [DMEM supplemented with 10% FBS, 0.1 mM non-essential amino acids (Life technologies #11140-050), 2 mM GlutaMAX (Life technologies #35050-079), 50 U/ml penicillin-streptomycin and 0.1 mM 2-mercaptoethanol (Life technologies #21985-023)] (day 2). On day 3, MEF cells were reseeded onto 24-well plates at the density of 1×10^5 cells. Then transfection was repeated once as described above (day 4). Forty-eight hours after the second transfection (day 6), MEF cells were used for immunostaining, RT-qPCR or SCNT.
Somatic cell nuclear transfer was carried out as described previously (Matoba et al., 2011). Briefly, recipient MII oocytes were collected from superovulated adult BDF1 females by brief treatment with 300 U/ml bovine testicular hyaluronidase (Calbiochem). Isolated MII oocytes were enucleated in Hepes-buffered KSOM medium containing 7.5 μg/ml of cytochalasin B (Calbiochem #250233). […]

SCNT blastocysts = assay: ntESC derivation from SCNT blastocysts; type: cell-based, mouse; details: for No. of blastocyst attached to feeder cells / No. of established ntESC lines / blastocyst attached to feeder cells (% per blast) / established ntESC lines (% per MII oocyte) / established ntESC lines (% per blast): cumulus donor cells (BDF1, female)
Protocol: Blastocysts were denuded by acid tyrode treatment and cultured on mitomycin treated MEF feeder cells and in DMEM supplemented with 5% FBS, 10% KnockOut serum replacement (Life Technologies #10828-028), 0.1 mM non-essential amino acids, 2 mM GlutaMAX, 50 U/ml penicillin-streptomycin, 0.1 mM 2-mercaptoethanol and 2000 U leukemia inhibitory factor (LIF, Millipore #ESG1107) at 37° C. 5% CO2. Four to five days later, outgrowths from attached embryos were dissociated with 0.25% trypsin and passaged all onto new feeder cells. On the following day, the medium was replaced with N2B27-LIF media [DMEM/F12 (Life Technologies #10565-042) supplemented with 0.1 mM non-essential amino acids, 2 mM GlutaMAX, 50 U/ml penicillin-streptomycin, 0.1 mM 2-mercaptoethanol, 0.5×N2 supplement (Life technologies #17502-048), 0.5× B27 supplement (Life technologies #17504-044), […] CHIR99021 (STEMGENT #04-0004), 0.5 μM PD0325901 (STEMGENT #04-0006) and 1000 U LIF]. Five days later, expanded cells were reseeded as established ntESC.

[1] = MEF donor cells (C57BL/6, male) treated with transfection reagent alone, injected mRNA 1800 ng/μl
[2] = Sertoli donor cells (BDF1, male), injected mRNA 1800 ng/μl
[3] = cumulus donor cells (BDF1, female), TSA treatment 15 nM for 8 h, water or mRNA 1800 ng/μl injected
[4] = cumulus donor cells (BDF1, female), no TSA, injected mRNA 1800 ng/μl
[5] = cumulus donor cells (BDF1, female), no TSA, mRNA 1800 ng/μl
[6] = TSA treatment 15 nM for 8 h, water or mRNA 1800 ng/μl injected

## Kdm4d WT mRNA: in vitro transcribed full length mouse Kdm4d mRNA, encoding an H3K9me3-specific histone demethylase
SCNT embryos; [1]
  % 4-cell per 2-cell ± SD: 95.4 ± 5.5 %
  % blast per 2-cell ± SD: 82.0 ± 10.3 %
  % cleaved per 1-cell ± SD: 86.9 ± 8.8%
  % morula per 2-cell ± SD: 89.6 ± 7.9 %
SCNT embryos; Sertoli cells or C57BL/6 background MEF cells as donor cells
  developmental efficiency of SCNT embryos (in words): significantly improved the developmental efficiency
SCNT embryos; [2]
  % 4-cell per 2-cell ± SD: 95.3 ± 3.6 %
  % blast per 2-cell ± SD: 81.2 ± 7.5 %
  % cleaved per 1-cell ± SD: 89.3 ± 8.4%
  % morula per 2-cell ± SD: 91.6 ± 6.4 %
SCNT embryos; [3]
  % 4-cell per 2-cell ± SD: 95.8 ± 0.0 %
  % cleaved per 1-cell ± SD: 94.1 ± 0.0%
  % morula per 2-cell ± SD: 93.8 ± 6.3 %
  No. of blastocyst: 21
  blastocyst (% per 1-cell): 95.5%
SCNT embryos; cumulus donor cells (BDF1, female), TSA treatment 15 nM for 8 h, water or mRNA 1800 ng/μl injected, listed as Kdm4d WT
  % blast per 2-cell ± SD: 87.5 ± 12.5 %
SCNT embryos; cumulus donor cells (BDF1, female), TSA treatment 15 nM for 8 h, water or mRNA 1800 ng/μl injected, listed as Kdm4d mRNA
  % blast per 2-cell ± SD: 87.5%
SCNT embryos; [4]
  % 4-cell per 2-cell ± SD: 98.9 ± 2.3 %
  % cleaved per 1-cell ± SD: 92.7 ± 6.2%
  % morula per 2-cell ± SD: 96.5 ± 4.4 %
SCNT embryos; cumulus donor cells (BDF1, female), no TSA, injected mRNA 1800 ng/μl, 96 h culture, listed as Kdm4d
  % blast per 2-cell ± SD: 88.6%
SCNT embryos; cumulus donor cells (BDF1, female), no TSA, injected mRNA 1800 ng/μl, 96 h culture, listed as Kdm4d WT
  % blast per 2-cell ± SD: 88.6 ± 3.9 %
SCNT embryos; cumulus donor cells (BDF1, female), no TSA, injected mRNA 1800 ng/μl, 96 h culture, listed as wild-type Kdm4d mRNA
  % blast per 2-cell ± SD: 88.6%
SCNT embryos; [5]
  No. of blastocyst: 18
  blastocyst (% per 1-cell): 94.7%
SCNT blastocysts; SCNT blastocysts from cumulus donor cells
  efficiency of attachment or ntESC derivation per blastocyst, compared to control (in words): did not show any significant difference
SCNT blastocysts; cumulus donor cells
  ntESC derivation efficiency based on the total number of MII oocytes used for SCNT (in words): greatly improved
SCNT blastocysts; [6]
  No. of blastocyst attached to feeder cells: 16
  No. of established ntESC lines: 11
  blastocyst attached to feeder cells (% per blast): 76.2%
  established ntESC lines (% per MII oocyte): (44.0) %
  established ntESC lines (% per blast): (52.3) %
SCNT blastocysts; no TSA, mRNA 1800 ng/μl
  No. of blastocyst attached to feeder cells: 13
  No. of established ntESC lines: 10
  blastocyst attached to feeder cells (% per blast): 72.2%
  established ntESC lines (% per MII oocyte): (50.0) %
  established ntESC lines (% per blast): (55.6) %

From patent US12644133B2, “Methods and compositions to increase somatic cell nuclear transfer (SCNT) efficiency by removing histone H3-lysine trimethylation” (The Children's Medical Center Corporation, priority 2014, dated 2026)
